According to patent US6645983B1, “Pharmaceutical compositions comprising 4-quinolones for treating cancers” (Laboratoire L. Lafon, priority 1999, dated 2003):

Experiments:
[1] = tested on: J82; experiment: MTT test, cytotoxic activity on non-clonogenic cell lines; format: cell-based; details: Homo sapiens, 10^−5 M, 72 hours incubation, MTT, mean value, read-out: mean optical density, expressed as percentage relative to the mean optical density under the control condition (100%)
In short: (§1)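 Human bladder cancer lines were seeded at 20 000–50 000 cells/ml and, after 24 h, exposed to compounds at 10^−5 to 10^−10 M against a solvent control. Formazan was dissolved in DMSO and viability was read by spectrophotometric optical density.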

[2] = tested on: T24; experiment: as above; format: cell-based; details: Homo sapiens, T-24; T24; 10^−5 M; 72 hours incubation; MTT; mean value; read-out: mean optical density, expressed as percentage relative to the mean optical density under the control condition (100%)
In short: as §1

[3] = tested on: U-87MG; experiment: as above; format: cell-based; details: Homo sapiens; U-87MG; 10^−5 M; 72 hours incubation; MTT; mean value; read-out: mean optical density, expressed as percentage relative to the mean optical density under the control condition (100%)
In short: (§2)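 Human cancer lines seeded at 20 000–50 000 cells/ml, allowed 24 h to attach, then exposed to compounds at 10^−5 to 10^−10 M versus solvent control.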

[4] = tested on: MCF7; experiment: as above; format: cell-based; details: Homo sapiens, 10^−5 M, 72 hours incubation, MTT, mean value, read-out: mean optical density, expressed as percentage relative to the mean optical density under the control condition (100%)
In short: as §2

[5] = tested on: T-47D; experiment: as above; format: cell-based; details: Homo sapiens, T47D; T-47D; 10^−5 M; 72 hours incubation; MTT; mean value; read-out: mean optical density, expressed as percentage relative to the mean optical density under the control condition (100%)
In short: as §2

[6] = tested on: LoVo; experiment: as above; format: cell-based; details: Homo sapiens, 10^−5 M, 72 hours incubation, MTT, mean value, read-out: mean optical density, expressed as percentage relative to the mean optical density under the control condition (100%)
In short: as §2

[7] = tested on: PC-3; experiment: as above; format: cell-based; details: Homo sapiens, 10^−5 M, 72 hours incubation, MTT, mean value, read-out: mean optical density, expressed as percentage relative to the mean optical density under the control condition (100%)
In short: as §2

[8] = tested on: A549; experiment: as above; format: cell-based; details: Homo sapiens, 10^−5 M, 72 hours incubation, MTT, mean value, read-out: mean optical density, expressed as percentage relative to the mean optical density under the control condition (100%)
In short: as §2

[9] = tested on: U-373MG; experiment: as above; format: cell-based; details: Homo sapiens, U373 MG; U-373MG; 10^−5 M; 72 hours incubation; MTT; mean value; read-out: mean optical density, expressed as percentage relative to the mean optical density under the control condition (100%)
In short: as §2

[10] = tested on: HCT-15; experiment: as above; format: cell-based; details: Homo sapiens, HCT-16, 10^−5 M, 72 hours incubation, MTT, mean value, read-out: mean optical density, expressed as percentage relative to the mean optical density under the control condition (100%)
In short: as §2

[11] = tested on: A-427; experiment: as above; format: cell-based; details: Homo sapiens, 10^−5 M, 72 hours incubation, MTT, mean value, read-out: mean optical density, expressed as percentage relative to the mean optical density under the control condition (100%)
In short: as §2

[12] = Determination of the maximum tolerated dose (MTD); details: B6D2F1/Jico, mouse, in vivo, ip; single intraperitoneal administration, doses 2.5 to 160 mg/kg, survival over 14 days
In short: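 Mice were 4- to 6-week-old B6D2F1/Jico. They received a single intraperitoneal dose of 2.5 to 160 mg/kg, and survival and body weight were followed for 14 days. MTD is given in mg/kg and is capped at 160 mg/kg by default.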

[13] = tested on: SW1088; experiment: MTT test, cytotoxic activity on non-clonogenic cell lines; format: cell-based; details: Homo sapiens, 10^−5 M, 72 hours incubation, MTT, mean value, read-out: mean optical density, expressed as percentage relative to the mean optical density under the control condition (100%)
In short: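 Human astrocytoma SW1088 cells seeded, grown 24 h at 37° C, 5% CO2, then exposed to compounds at 10^−5 to 10^−10 M versus solvent control. Viability by MTT reduction: 3 h MTT incubation, formazan dissolved in DMSO and read by spectrophotometry.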

Compound COc1ccc(-c2cn(C)c3cc(OC)cc(NCCN(C)C)c3c2=O)cc1 [CRL8462, 5-{[(Dimethylamino)ethyl]amino}-7-methoxy-3-(4-methoxyphenyl)-1-methyl-1,4-dihydro-4-quinolinone] has a viability at 10 µM [1] of 105%, a viability at 10 µM [2] of 111% and a viability at 10 µM [3] of 195%. It also gave a viability at 10 µM [4] of 89.4%, a viability at 10 µM [5] of 92.2% and a viability at 10 µM [6] of 84.6%. For the same compound, the viability at 10 µM [7] was 84%, the viability at 10 µM [8] was 86.8% and the viability at 10 µM [9] was 111%. The viability at 10 µM [10] was 77.4%, the viability at 10 µM [11] was 77.1% and the MTD at 14 day [12] was > 160 mg/kg. It also gave a viability at 10 µM [13] of 105%.
Work on COc1ccc(-c2cn(C)c3cc(OC)ccc3c2=O)cc1 [CRL8464, 7-Methoxy-3-(4-methoxyphenyl)-1-methyl-1,4-dihydro-4-quinolinone] yielded a viability at 10 µM [1] of 95.4%, a viability at 10 µM [2] of 105% and a viability at 10 µM [3] of 105%. The viability at 10 µM [4] was 99.8%, the viability at 10 µM [5] was 110% and the viability at 10 µM [6] was 101%. It also gave a viability at 10 µM [7] of 97.1%, a viability at 10 µM [8] of 91.3% and a viability at 10 µM [9] of 118%. For the same compound, the viability at 10 µM [10] was 111%, the viability at 10 µM [11] was 102% and the MTD at 14 day [12] was > 160 mg/kg. For the same compound, the viability at 10 µM [13] was 95.6%.
With CCOC(=O)Cn1cc(-c2ccc(OC)cc2)c(=O)c2ccc(OC)cc21 [CRL8465, Ethyl 2-[7-methoxy-3-(4-methoxyphenyl)-4-oxo-1,4-dihydro-1-quinolinyl]acetate] the viability at 10 µM [1] was 93.6%, the viability at 10 µM [2] was 91.2% and the viability at 10 µM [3] was 105%. For the same compound, the viability at 10 µM [4] was 94.3%, the viability at 10 µM [5] was 94.4% and the viability at 10 µM [6] was 110%. The viability at 10 µM [7] was 96.9%, the viability at 10 µM [8] was 80.1% and the viability at 10 µM [9] was 100%. The viability at 10 µM [10] was 165%, the viability at 10 µM [11] was 85.4% and the MTD at 14 day [12] was > 160 mg/kg. The viability at 10 µM [13] was 89.8%.
CCN(CC)C(=O)Cn1cc(-c2ccc(OC)cc2)c(=O)c2ccc(OC)cc21 [CRL8466, N,N-Diethyl-2-[7-methoxy-3-(4-methoxyphenyl)-4-oxo-1,4-dihydro-1-quinolinyl]acetamide] showed a viability at 10 µM [1] of 93.1%, a viability at 10 µM [2] of 69.5% and a viability at 10 µM [3] of 97.2%. The viability at 10 µM [4] was 108%, the viability at 10 µM [5] was 95.2% and the viability at 10 µM [6] was 98.9%. For the same compound, the viability at 10 µM [7] was 102%, the viability at 10 µM [8] was 101% and the viability at 10 µM [9] was 59.4%. The viability at 10 µM [10] was 96.1%, the viability at 10 µM [11] was 97.5% and the MTD at 14 day [12] was > 160 mg/kg. It also gave a viability at 10 µM [13] of 102%.
With COc1ccc(-c2cn(CCC#N)c3cc(OC)ccc3c2=O)cc1 [CRL8467, 3-[7-Methoxy-3-(4-methoxyphenyl)-4-oxo-1,4-dihydro-1-quinolinyl]propanenitrile] the viability at 10 µM [1] was 96.3%, the viability at 10 µM [2] was 94.6% and the viability at 10 µM [3] was 95.3%. The viability at 10 µM [4] was 98.3%, the viability at 10 µM [5] was 100% and the viability at 10 µM [6] was 95.8%. It also gave a viability at 10 µM [7] of 98.4%, a viability at 10 µM [8] of 90.8% and a viability at 10 µM [9] of 108%. For the same compound, the viability at 10 µM [10] was 108%, the viability at 10 µM [11] was 90% and the MTD at 14 day [12] was > 160 mg/kg. The viability at 10 µM [13] was 101%.
Work on CCOC(=O)CCn1cc(-c2ccc(OC)cc2)c(=O)c2ccc(OC)cc21 [CRL8468, Ethyl 3-[7-methoxy-3-(4-methoxyphenyl)-4-oxo-1,4-dihydro-1-quinolinyl]propanoate] yielded a viability at 10 µM [1] of 91.9%, a viability at 10 µM [2] of 98.5% and a viability at 10 µM [3] of 92.7%. It also gave a viability at 10 µM [4] of 79.1%, a viability at 10 µM [5] of 92.2% and a viability at 10 µM [6] of 97.2%. The viability at 10 µM [7] was 95%, the viability at 10 µM [8] was 93.6% and the viability at 10 µM [9] was 107%. For the same compound, the viability at 10 µM [10] was 111%, the viability at 10 µM [11] was 69.7% and the MTD at 14 day [12] was > 160 mg/kg. The viability at 10 µM [13] was 104%.
COc1ccc(-c2cn(CCCC#N)c3cc(OC)ccc3c2=O)cc1 [CRL8470, 4-[7-Methoxy-3-(4-methoxyphenyl)-4-oxo-1,4-dihydro-1-quinolinyl]butanenitrile] showed a viability at 10 µM [1] of 85.6%, a viability at 10 µM [2] of 101% and a viability at 10 µM [3] of 97.2%. It also gave a viability at 10 µM [4] of 92.8%, a viability at 10 µM [5] of 88.8% and a viability at 10 µM [6] of 86.6%. The viability at 10 µM [7] was 94%, the viability at 10 µM [8] was 80.2% and the viability at 10 µM [9] was 104%. For the same compound, the viability at 10 µM [10] was 95.5%, the viability at 10 µM [11] was 103% and the MTD at 14 day [12] was > 160 mg/kg. It also gave a viability at 10 µM [13] of 92.5%.
With COc1ccc(-c2cn(CCc3nnn[nH]3)c3cc(OC)ccc3c2=O)cc1 [CRL8474, 7-Methoxy-3-(4-methoxyphenyl)-1-[2-(2H-1,2,3,4-tetrazol-5-yl)ethyl]-1,4-dihydro-4-quinolinone] the melting point was 245 to 246 °C.
Compound COc1ccc2[nH]cc(-c3ccccc3)c(=O)c2c1 [CRL8488, 6-Methoxy-3-phenyl-1,4-dihydro-4-quinolinone] has a melting point of 355 to 356 °C.
COc1cc(OC)c2c(=O)c(-c3ccccc3)cn(C)c2c1 [CRL8489, 5,7-Dimethoxy-3-phenyl-1-methyl-1,4-dihydro-4-quinolinone] showed a melting point of 179 to 180 °C.
In the case of COc1ccc(-c2c[nH]c3ccc(OC)cc3c2=O)cc1 [CRL8490, 6-Methoxy-3-(4-methoxyphenyl)-1,4-dihydro-4-quinolinone], the melting point is reported as 335 to 336 °C.
With COc1ccc(-c2c[nH]c3cccc(OC)c3c2=O)cc1 [CRL8491, 5-Methoxy-3-(4-methoxyphenyl)-1,4-dihydro-4-quinolinone] the melting point was 215 to 216 °C.
Compound COc1ccc(-c2c[nH]c3cc(OC)cc(O)c3c2=O)cc1 [CRL8492, 5-Hydroxy-7-methoxy-3-(4-methoxyphenyl)-1,4-dihydro-4-quinolinone] has a melting point of 236 to 237 °C.
COc1ccc(-c2cn(C)c3cc(OC)cc(OS(=O)(=O)C(F)(F)F)c3c2=O)cc1 [CRL8493, 7-Methoxy-3-(4-methoxyphenyl)-1-methyl-5-trifluoromethanesulfonate-1,4-dihydro-4-quinolinone] showed a melting point of 184 to 185 °C.
With C=Cc1cc(OC)cc2c1c(=O)c(-c1ccc(OC)cc1)cn2C [CRL8494, 7-Methoxy-3-(4-methoxyphenyl)-1-methyl-5-vinyl-1,4-dihydro-4-quinolinone] the melting point was 130 to 131 °C.
C=CCOc1c(-c2ccc(OC)cc2)cnc2cc(OC)cc(OC)c12 [CRL8496, 4-(Allyloxy)-5,7-dimethoxy-3-(4-methoxyphenyl)-quinoline] showed a melting point of 169 to 170 °C.
For COc1ccc(-c2cnc3cc(OC)cc(OC)c3c2OCCC2OCCO2)cc1 [CRL8500, 4-[2-(1,3-Dioxolan-2-yl)ethoxy]-5,7-dimethoxy-3-(4-methoxyphenyl)quinoline], the melting point was 141 to 142 °C.
In the case of COc1ccc(-c2cnc3c(OC)ccc(OC)c3c2OCCCC#N)cc1 [CRL8501, {[5,8-Dimethoxy-3-(4-methoxyphenyl)-4-quinolyl]oxy}butanenitrile], the melting point is reported as 117 to 118 °C.
CCOC(=O)COc1c(-c2ccc(OC)cc2)cnc2cc(OC)cc(OC)c12 [CRL8502, Ethyl 2-{[5,7-dimethoxy-3-(4-methoxyphenyl)-4-quinolinyl]oxy}acetate] gave a melting point of 238 to 239 °C.
With COc1ccc(-c2cn(C)c3c(OC)ccc(OS(=O)(=O)C(F)(F)F)c3c2=O)cc1 [CRL8511, 8-Methoxy-3-(4-methoxyphenyl)-1-methyl-5-trifluoro-methanesulfonate-1,4-dihydro-4-quinolinone] the melting point was 179 to 180 °C.
For C=Cc1ccc(OC)c2c1c(=O)c(-c1ccc(OC)cc1)cn2C [CRL8512, 8-Methoxy-3-(4-methoxyphenyl)-1-methyl-5-vinyl-1,4-dihydro-4-quinolinone], the melting point was 104 to 105 °C.
CC(=O)Oc1ccc(-c2cn(C)c3cc(OC(C)=O)cc(OC(C)=O)c3c2=O)cc1 [CRL8513, 5,7-Diacetoxy-3-[4-(acetoxy)phenyl]-1-methyl-1,4-dihydro-4-quinolmone] gave a melting point of 219 to 220 °C.
Work on COc1ccc(-c2cn(CCO)c3c(OC)ccc(OC)c3c2=O)cc1 [CRL8515, 1-(2-Hydroxyethyl)-5,8-dimethoxy-3-(4-methoxyphenyl)-1,4-dihydro-4-quinolinone] yielded a melting point of 126 to 127 °C.
COc1ccc(-c2cnc3c(OC)ccc(OC)c3c2OCCO)cc1 [CRL8516, 2-{[5,8-Dimethoxy-3-(4-methoxyphenyl)-4-quinolyl]oxy}-1-ethanol] gave a melting point of 124 to 125 °C.
